Tests used:
[1] = molecular target: T1, IRAK4 (Homo sapiens, UniProt Q9NWZ3); assay: WB detection of proteolysis (Western Blot, THP-1 cells); assay type: cell-based
T1 sequence (Q9NWZ3 1-460): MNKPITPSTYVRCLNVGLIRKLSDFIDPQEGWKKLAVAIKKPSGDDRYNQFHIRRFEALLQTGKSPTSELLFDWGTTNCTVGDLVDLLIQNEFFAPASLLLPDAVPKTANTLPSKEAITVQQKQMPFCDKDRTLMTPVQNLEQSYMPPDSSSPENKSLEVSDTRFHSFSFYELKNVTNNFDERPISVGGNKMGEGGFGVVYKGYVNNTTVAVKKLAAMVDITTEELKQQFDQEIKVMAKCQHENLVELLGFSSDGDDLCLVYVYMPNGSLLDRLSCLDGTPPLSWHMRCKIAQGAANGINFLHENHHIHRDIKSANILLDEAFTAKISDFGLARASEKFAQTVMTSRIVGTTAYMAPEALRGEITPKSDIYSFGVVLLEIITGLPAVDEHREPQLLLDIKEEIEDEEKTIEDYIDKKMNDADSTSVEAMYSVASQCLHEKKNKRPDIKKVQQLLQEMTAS
Experimental: The degradation level of IRAK4 in THP-1 cells was detected by Western Blot technology. […] 1000X gradient dilution stock of the compound was prepared, with the highest concentration set at 300 µM. The dilution was carried out using DMSO in a 1:3 dilution factor, yielding a total of 9 concentrations. 1000X gradient dilutions of the compound were added to a 12-well plate, with 1 µL per well. Incubation was performed under conditions of 37°C and 5% CO2 for 24 h, and the cells were collected into 2 mL of centrifuge tubes and centrifuged at 5000 rpm for 5 min, and the supernatant was removed. 100 µL of RIPA lysis buffer (Beyotime, P0013C) was added and mixed uniformly, then the cells were lysed on ice for 10 min, centrifuged at 4°C at 14000 rpm for 10 min, and the supernatant was collected. Protein content was determined with BCA (Solarbio, PC0020-10*50T). 75 µL of the supernatant was taken, and 25 µL of NuPAGE LDS Sample Buffer (4X) (Thermo B0007) was added to each tube (5% β-mercaptoethanol was added before use) to prepare samples, and the samples were boiled in a metal bath at 100°C for 5 min. […] 1x NuPAGE™ MOPS SDS electrophoresis buffer (20X) (Invitrogen, NP0001) was prepared, and the electrophoresis instrument was set to a constant current of 300 mA for 100 min, and the protein was transferred to a PVDF membrane (Millipore, IPVH00010). […] The membrane was washed three times with 1x TBST (Elabscience E-BC-R335) the next day, each time for 5 min. […] The membrane was washed three times with TBST, each time for 5 min. The Odyssey imaging system Li-cor Odyssey CLx was used to detect signals and analyze data. GraphPad (Prism 9.3) software was used to perform analysis for data, and non-linear fitting (non-liner inhibitor (Bell-shaped)) and four parameters (4 parameter) were used, and the parameters was as follows: Span1 = Plateau1−Dip [formula] Span2 = Plateau2−Dip [formula] Section1 = Span1/(1+10^(∧)((LogEC50_1−X)*nH1)) [formula] Section2 = Span2/(1+10^(∧)((X−LogEC50_2)*nH2)) [formula]
The equation was as follows: Y=Dip+Section1+Section2.

[2] = molecular target: T1, IRAK4; assay: Hibit fluorescence detection of proteolysis (IRAK4-HiBiT in HEK293T cells); assay type: cell-based; parameters: host or cells: HEK293T (ATCC); settings: for Dmax: HEK-293T; for DC50: IRAK4-HiBiT, HEK293T cells, 24 h
Method in brief: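 Degradation read-out: luminescence from lytic HiBiT detection (15 min, room temperature) after 24 h compound exposure (37 °C, 5% CO2) of HEK293T cells transiently expressing IRAK4 fused to a HiBiT tag. Data fitted to a bell-shaped four-parameter model giving two EC50 values.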

[3] = Western Blot, THP-1 cells, 24 h, read-out: DC50
[4] = Western Blot, THP-1 cells, 24 h, read-out: Dmax

Row | SMILES | DC50 [1, 3] | Dmax [1, 4] | Dmax [2] | DC50 ([2]; read-out: DC50) | DC50 [2] | Dmax ([1]; THP-1) | DC50 ([1]; Western Blot, THP-1 cells, 24 h)
1 | C[C@H]1CN(c2ccn3ncc(-c4cn(-c5cn([C@H]6CC[C@H](CN7CCC8(CC7)CN(c7cccc9c7n(C)c(=O)n9C7CCC(=O)NC7=O)C8)CC6)nc5C(F)F)nn4)c3n2)CCO1 (some centres unmarked) [Compound 178] | < 0.01 µM | > 70% | > 80% | < 0.0005 µM |  |  | 
2 | C[C@H]1COCCN1c1ccn2ncc(-c3cn(-c4cn([C@H]5CC[C@H](CN6CCC7(CC6)CCN(c6cccc8c6n(C)c(=O)n8C6CCC(=O)NC6=O)C7)CC5)nc4C(F)F)nn3)c2n1 (some centres unmarked) [Compound 204] | < 0.01 µM | 60 to 70% | 70 to 80% | < 0.0005 µM |  |  | 
3 | C[C@H]1CN(c2ccn3ncc(-c4cn(-c5cn([C@H]6CC[C@H](CN7CCC(N8CCN(c9cccc%10c9n(C)c(=O)n%10C9CCC(=O)NC9=O)CC8)CC7)CC6)nc5C(F)F)nn4)c3n2)CCO1 (some centres unmarked) [Compound 208] | < 0.01 µM | > 70% | > 80% | < 0.0005 µM |  |  | 
4 | Cn1c(=O)n(C2CCC(=O)NC2=O)c2cccc(N3CCC4(CCN(C[C@H]5CC[C@H](n6cc(-n7cc(-c8cnn9ccc(N%10CCC(C)(O)CC%10)nc89)nn7)c(C(F)F)n6)CC5)C4)CC3)c21 (some centres unmarked) [Compound 238] | 0.01 to 0.03 µM | 60 to 70% | > 80% | < 0.0005 µM |  |  | 
5 | Cn1c(=O)n(C2CCC(=O)NC2=O)c2cccc(N3CCN(C[C@H]4CC[C@H](n5cc(-n6cc(-c7cnn8ccc(N9CCOCC9)nc78)nn6)c(C(F)F)n5)CC4)CC3)c21 (some centres unmarked) [Example 30] | < 0.01 µM | < 60% | > 80% |  | < 0.0005 µM |  | 
6 | Cn1c(=O)n(C2CCC(=O)NC2=O)c2cccc(N3CCC(N4CCN(C[C@H]5CC[C@H](n6cc(-n7cc(-c8cnn9ccc(N%10CCOCC%10)nc89)nn7)c(C(F)F)n6)CC5)CC4)CC3)c21 (some centres unmarked) [Example 34] | < 0.01 µM | 60 to 70% | > 80% |  | < 0.0005 µM |  | 
7 | Cn1c(=O)n(C2CCC(=O)NC2=O)c2cccc(N3CC4(CCN(C[C@H]5CC[C@H](n6cc(-n7cc(-c8ccc9cc(C(N)=O)cnn89)nn7)c(C(F)F)n6)CC5)CC4)C3)c21 (some centres unmarked) [Example 35] | < 0.01 µM | 60 to 70% | > 80% |  | < 0.0005 µM |  | 
8 | Cn1c(=O)n(C2CCC(=O)NC2=O)c2cccc(N3CCC4(CCN(C[C@H]5CC[C@H](n6cc(-n7cc(-c8cnn9ccc(N%10CCOCC%10)nc89)nn7)c(C(F)F)n6)CC5)CC4)CC3)c21 (some centres unmarked) [Example 36] | < 0.01 µM | 60 to 70% | > 80% |  | < 0.0005 µM |  | 
9 | Cn1c(=O)n(C2CCC(=O)NC2=O)c2cccc(N3CCC4(CCN(C[C@H]5CC[C@H](n6cc(-n7cc(-c8ccc9cc(C(N)=O)cnn89)nn7)c(C(F)F)n6)CC5)C4)CC3)c21 (some centres unmarked) [Example 37] | < 0.01 µM | 60 to 70% | > 80% |  | < 0.0005 µM |  | 
10 | Cn1c(=O)n(C2CCC(=O)NC2=O)c2cccc(N3CCC4(CCN(C[C@H]5CC[C@H](n6cc(-n7cc(-c8cnn9ccc(N%10CCOCC%10)nc89)nn7)c(C(F)F)n6)CC5)C4)CC3)c21 (some centres unmarked) [Example 39, 3-(4-(2-(((1r,4r)-4-(3-(difluoromethyl)-4-(4-(5-morpholinopyrazolo[1,5-a]pyrimidin-3-yl)-1H-1,2,3-triazol-1-yl)-1H-pyrazol-1-yl)cyclohexyl)methyl)-2,8-diazaspiro[4.5]dec-8-yl)-3-methyl-2-oxo-2,3-dihydro-1H-benzo[d]imidazol-1-yl)piperidine-2,6-dione] | < 0.01 µM | > 70% | > 80% |  | < 0.0005 µM |  | 
11 | Cn1c(=O)n(C2CCC(=O)NC2=O)c2cccc(N[C@H]3CC[C@@H](N(C)C[C@H]4CC[C@H](n5cc(-n6cc(-c7cnn8ccc(N9CCOCC9)nc78)nn6)c(C(F)F)n5)CC4)CC3)c21 (some centres unmarked) [Example 54] | < 0.01 µM | 60 to 70% | > 80% |  | < 0.0005 µM |  | 
12 | Cn1c(=O)n(C2CCC(=O)NC2=O)c2cccc(N[C@H]3CC[C@H](N(C)C[C@H]4CC[C@H](n5cc(-n6cc(-c7cnn8ccc(N9CCOCC9)nc78)nn6)c(C(F)F)n5)CC4)CC3)c21 (stereo partly drawn) [Example 55, 3-(4-(((1R,4r)-4-((((1r,4R)-4-(3-(difluoromethyl)-4-(4-(5-morpholinopyrazolo[1,5-a]pyrimidin-3-yl)-1H-1,2,3-triazol-1-yl)-1H-pyrazol-1-yl)cyclohexyl)methyl)(methyl)amino)cyclohexyl)amino)-3-methyl-2-oxo-2,3-dihydro-1H-benzo[d]imidazol-1-yl)piperidine-2,6-dione] |  |  | > 80% |  | < 0.0005 µM | < 60% | < 0.01 µM
13 | C[C@H]1COCCN1c1ccn2ncc(-c3cn(-c4cn([C@H]5CC[C@H](CN6CCN(C7CCN(c8cccc9c8n(C)c(=O)n9C8CCC(=O)NC8=O)CC7)CC6)CC5)nc4C(F)F)nn3)c2n1 (some centres unmarked) [Example 59] | < 0.01 µM | > 70% | 70 to 80% |  | < 0.0005 µM |  | 
14 | Cn1c(=O)n(C2CCC(=O)NC2=O)c2cccc(CN3CC4(CCC(CN[C@H]5CC[C@H](n6cc(-n7cc(-c8ccc9cc(C(N)=O)cnn89)nn7)c(C(F)F)n6)CC5)CC4)C3)c21 (some centres unmarked) [Example 60] | 0.01 to 0.03 µM | > 70% | > 80% |  | 0.001 to 0.005 µM |  | 
15 | Cn1c(=O)n(C2CCC(=O)NC2=O)c2cccc(N[C@H]3CC[C@H](N(C)C[C@H]4CC[C@H](n5cc(-n6cc(-c7ccc8cc(C(N)=O)cnn78)nn6)c(C(F)F)n5)CC4)CC3)c21 (stereo partly drawn) [Example 61, 7-(1-(3-(difluoromethyl)-1-((1R,4r)-4-((((1r,4R)-4-((1-(2,6-dioxopiperidin-3-yl)-3-methyl-2-oxo-2,3-dihydro-1H-benzo[d]imidazol-4-yl)amino)cyclohexyl)(methyl)amino)methyl)cyclohexyl)-1H-pyrazol-4-yl)-1H - 1,2,3-triazol-4-yl)pyrrolo[1,2-b]pyridazine-3-carboxamide] | < 0.01 µM | 60 to 70% | > 80% |  | < 0.0005 µM |  | 
16 | Cn1c(=O)n(C2CCC(=O)NC2=O)c2cccc(N3CCC4(CCN(C[C@H]5CC[C@H](n6cc(-n7cc(-c8ccc9cc(C(N)=O)cnn89)nn7)c(C(F)F)n6)CC5)CC4)C3)c21 (some centres unmarked) [Example 62, 7-(1-(3-(difluoromethyl)-1-((1r,4r)-4-((2-(1-(2,6-dioxopiperidin-3-yl)-3-methyl-2-oxo-2,3-dihydro-1H-benzo[d]imidazol-4-yl)-2,8-diazaspiro[4.5]dec-8-yl)methyl)cyclohexyl)-1H-pyrazol-4-yl)-1H-pyrazol-1,2,3-triazol-4yl)pyrrolo[1,2-b]pyridazine-3-carboxamide] | < 0.01 µM | > 70% | > 80% |  | < 0.0005 µM |  | 
17 | C[C@@H]1CC2(CCN(c3cccc4c3n(C)c(=O)n4C3CCC(=O)NC3=O)CC2)CN1C[C@H]1CC[C@H](n2cc(-n3cc(-c4cnn5ccc(N6CCC[C@H](O)C6)nc45)nn3)c(C(F)F)n2)CC1 (some centres unmarked) [Example 296] | 0.01 to 0.03 µM | > 70% |  |  |  |  | 
18 | Cn1c(=O)n(C2CCC(=O)NC2=O)c2cccc(N3CCC(N4CCN(C[C@H]5CC[C@H](n6cc(-n7cc(-c8cnn9ccc(N%10CCC[C@H](O)C%10)nc89)nn7)c(C(F)F)n6)CC5)CC4)[C@@H](F)C3)c21 (stereo partly drawn) [Example 297, 3-(4-((3S)-4-(4-(((1R,4S)-4-(3-(difluoromethyl)-4-(4-(5-((S)-3-hydroxypiperidin-1-yl)pyrazolo[1,5-a]pyrimidin-3-yl)-1H-1,2,3-triazol-1-yl)-1H-pyrazol-1-yl)cyclohexyl)methyl)piperazin-1-yl)-3-fluoropiperidin-1-yl)-3-methyl-2-oxo-2,3-dihydro-1H-benzo[d]imidazol-1-yl)piperidine-2,6-dione] | < 0.01 µM | > 70% |  |  |  |  | 

— patent publication EP4759807A1, “PROTEOLYSIS TARGETING CHIMERA COMPOUND FOR DEGRADING IRAK4 AND USE THEREOF” (Shenzhen Zhongge Biological Technology Co., Ltd., priority 2023, dated 2025)
